Laboratory results published in patent US20250304700A1, “ANTI-BLOOD DENDRITIC CELL ANTIGEN 2 ANTIBODIES AND USES THEREOF” (Biogen MA Inc., priority 2012, published 2025).

Tests used:
BDCA2 bearing CHO cells = assay: ADCC assay with NK cells; assay type: cell-based; details: NK:CHO 5:1, 4 hours
Procedure: The CHO cell line (EAG2456 T1F2 Clone 34.16.7) was used as the target cell. Expression level of BDCA2 on the surface of CHO cells was determined by FACS using an APC-labeled anti-BDCA2 mAb (clone AC144, Miltenyi). NK cells were used as the effector cells and were separated from whole blood by negative selection using the RosetteSep™ Human NK Cell Enrichment Cocktail (Stem Cells Technologies). After a 20 minute incubation with the cocktail at room temperature, NK cells were isolated by discontinuous gradient centrifugation over ficoll. […] The negative control consisted of wells containing CHO and NK cells without antibodies. NK and CHO cells lysed with Tx-100 were used to determine maximal killing. ADCC was evaluated using the Vybrant Cytotoxicity Assay kit (Invitrogen), following the manufacturer's instructions. The assay detects G6PD from damaged cells based on the G6PD-dependent reduction of resazurin which emits fluorescence at 590 nm after excitation at 530 nm. The ADCC assay depicted in FIG. 22 panel A was performed using high BDCA2 expressing CHO cells (panel C) while the ADCC assay in FIG. 22 panel B used CHO cells with lower BDCA2 expression (panel D).

[1] = system: CHO-BDCA2/FcεRIγ stable transfectant cells; assay: CDC assay with rabbit serum complement; assay type: cell-based; details: 1 h at 37° C.
Procedure: CHO− BDCA2/FcεRIγ stable transfectant cells (EAG2456 T1F2 Clone 34.16.7) were seeded at 5×10^4 cells in 96 well Collagen black well plates and incubated at 37° C. for 48 hrs. […] Negative control consisted of wells containing CHO cells, rabbit serum complement, and PI, without antibodies. NK and CHO cells lysed with T-100×were used to determine maximal killing. The plates were read using Cytoflour Fluorescence plate reader (ex530/em645).

[2] = system: human and cynomolgus BDCA2 ECD; assay: Octet binding of BIIB059 to BDCA2 ECD; parameters: species or system cynomolgus monkey; details: BIIB059 on anti-human Fc tips, ECD 2 μg/mL, 5 mM CaCl2
Procedure: For the association step, human and cynomolgus BDCA2 ECD was added at a concentration of 2 μg/mL. The buffer for this experiment was 50 mM HEPES, pH 7, 100 mM NaCl, 5 mM CaCl2, 1 mg/mL BSA, 0.02% Tween 20 and 0.001% azide.

[3] = system: TLR9-induced cytokines and chemokines by purified pDCs; assay: ELISA/multiplex of cytokines from CpG-A stimulated purified pDCs; assay type: cell-based, human
Procedure: Shown in FIG. 17 are the amounts of secreted IFNα and IL-6 measured from a representative donor of three tested healthy donors.
BDCA2 ligation suppresses the ability of pDCs to produce type I IFNs in response to TLR ligands (see FIG. 16). […] Specifically, pDCs from human healthy donors were isolated using a two-step magnetic bead separation procedure (MACS kit, Miltenyi Biotec). […] The plates containing pDCs were incubated for 18 hours at 37° C. and supernatants collected for use in ELISA or multiplex assays to measure concentrations of inflammatory cytokines and chemokines.

[4] = 5 μM CPG-A, increasing concentrations of BIIB059

| Substance | killing of BDCA2 bearing CHO cells (BDCA2 bearing CHO cells) | CDC activity, in words [1] | binding to human versus cyno BDCA2 ECD [2] | TLR9-induced IFNα, TNFα, IL-6, CCL3, CCL4, CCL5 ([3]; 1 μM CPG-A, 10 μg/mL antibody, 18 hours) | IFNα production [3, 4] | IL-6 production [3, 4] | ability to inhibit CPG-A-induced IFNα by pDCs ([3]; BIIB059 compared with 24F4A-Agly) | ADCC activity, in words (BDCA2 bearing CHO cells) |
| --- | --- | --- | --- | --- | --- | --- | --- | --- |
| 24F4S: hu24F4 H4/L1 with C95S light chain; differs from BIIB059 by 1 amino acid residue | 100% | cell killing by CDC similar to Triton lysis | – | – | – | – | – | – |
| BIIB059: humanized IgG1 anti-BDCA2 antibody, mature heavy chain SEQ ID NO: 4 and mature light chain SEQ ID NO: 3 | – | cell killing by CDC similar to Triton lysis | comparable | potently inhibited | potently inhibited | greatly reduced | undistinguishable | identical ADCC activity |
